Like-named read-outs stand apart in the source and are kept apart here.
Assays:
Assay type in all cases: cell-based
CCRF-CEM = test: NCI in vitro cytotoxicity (SRB, 48 h), Leukemia panel; settings: Homo sapiens, 48 h exposure
MOLT-4 = test: as above; settings: Homo sapiens; MOLT-4, Leukemia; 48 h exposure
RPMI-8226 = test: as above; settings: Homo sapiens; RPMI-8226, Leukemia; 48 h exposure
A549/ATCC = test: NCI in vitro cytotoxicity (SRB, 48 h), Non-small cell lung panel; settings: Homo sapiens, 48 h exposure
HOP-92 = test: as above; settings: Homo sapiens; HOP-92, Non-small cell lung; 48 h exposure
NCI-H226 = test: as above; settings: Homo sapiens, 48 h exposure
NCI-H322M = test: as above; settings: Homo sapiens, 48 h exposure
NCI-H522 = test: as above; settings: Homo sapiens, 48 h exposure
HCT-116 = test: NCI in vitro cytotoxicity (SRB, 48 h), Colon panel; settings: Homo sapiens; for IC50: HCT-116, HCT116, Table 4, read-out: Comparative efficacy
HCT-15 = test: NCI in vitro cytotoxicity (SRB, 48 h), Colon panel; settings: Homo sapiens; HCT-15, Colon; 48 h exposure
HT29 = test: NCI in vitro cytotoxicity (SRB, 48 h), Colon panel; settings: Homo sapiens, HT-29, 48 h exposure
KM12 = test: NCI in vitro cytotoxicity (SRB, 48 h), Colon panel; settings: Homo sapiens, 48 h exposure
SF-268 = test: NCI in vitro cytotoxicity (SRB, 48 h), CNS panel; settings: Homo sapiens; SF-268, CNS; 48 h exposure
SF-295 = test: NCI in vitro cytotoxicity (SRB, 48 h), CNS panel; settings: Homo sapiens; SF-295, CNS; 48 h exposure
SF-539 = test: NCI in vitro cytotoxicity (SRB, 48 h), CNS panel; settings: Homo sapiens; SF-539, CNS; 48 h exposure
U251 = test: NCI in vitro cytotoxicity (SRB, 48 h), CNS panel; settings: Homo sapiens, U-251, 48 h exposure
IGROV1 = test: NCI in vitro cytotoxicity (SRB, 48 h), Ovarian panel; settings: Homo sapiens, IGROV-1; IGROV1, Ovarian; 48 h exposure
OVCAR-4 = test: as above; settings: Homo sapiens; OVCAR-4, Ovarian; 48 h exposure
CAKI-1 = test: NCI in vitro cytotoxicity (SRB, 48 h), Renal panel; settings: Homo sapiens; CAKI-1, Renal; 48 h exposure
SN12C = test: NCI in vitro cytotoxicity (SRB, 48 h), Renal panel; settings: Homo sapiens, 48 h exposure
UO-31 = test: NCI in vitro cytotoxicity (SRB, 48 h), Renal panel; settings: Homo sapiens; UO-31, Renal; 48 h exposure
MCF7 = test: NCI in vitro cytotoxicity (SRB, 48 h), Breast panel; settings: Homo sapiens; for IC50: MCF7, MCF-7, Table 4, read-out: Comparative efficacy; for GI50: MCF7, Breast, 48 h exposure
Description: (§1) The imidazothiazole-chalcone hybrids 7a, 7e, 7f, 8f and 19e have been tested against sixty human tumour cell lines derived from nine cancer types (leukemia, non-small cell lung cancer, colon cancer, CNS cancer, melanoma, ovarian cancer, renal cancer, prostate cancer and breast cancer) as per NCI protocol. For each compound, dose response curves for individual cell lines have been measured at a minimum of five concentrations at 10 fold dilutions. A protocol of 48 h continuous drug exposure has been used, and a sulforhodamine B (SRB) protein assay was used to estimate cell viability or growth. The concentration for 50% cell growth inhibition (GI50), total cell growth inhibition (TGI, 0% growth) and 50% cell death (LC50, […]) compared with the control has been calculated (Table-1).

MDA-MB-231/ATCC = test: as above; settings: Homo sapiens; for GI50: Breast, 48 h exposure; for IC50: Table 4, read-out: Comparative efficacy
Description: as §1

BT-549 = test: as above; settings: Homo sapiens; BT-549, Breast; 48 h exposure
MALME-3M = test: NCI in vitro cytotoxicity (SRB, 48 h), Melanoma panel; settings: Homo sapiens, 48 h exposure
MDAMB-435 = test: as above; settings: Homo sapiens, MDA-MB-435; MDAMB-435, Melanoma; 48 h exposure
SK-MEL-28 = test: as above; settings: Homo sapiens; SK-MEL-28, Melanoma; 48 h exposure
UACC-62 = test: as above; settings: Homo sapiens; UACC-62, Melanoma; 48 h exposure
UACC-25 = test: as above; settings: Homo sapiens; UACC-25, Melanoma; 48 h exposure
Leukemia cell lines = test: NCI in vitro cytotoxicity, whole panel; settings: Homo sapiens; for CC50: read-out: Log10 LC50 (converted)
[1] = tested on: Ovarian cancer cell lines; test: NCI in vitro cytotoxicity, whole panel; settings: Homo sapiens; for CC50: read-out: Log10 LC50 (converted)
Breast cancer cell lines = test: NCI in vitro cytotoxicity, whole panel; settings: Homo sapiens; for GI50 / CC50: Breast, average of six to eight cell lines; for GI50: read-out: Log10 GI50 (converted); for CC50: read-out: Log10 LC50 (converted); for IC50: exposure period of at least 48 hrs, read-out: IC50, range over breast cell lines
[2] = tested on: sixty human tumour cell lines; test: NCI in vitro cytotoxicity, all panels; settings: for CC50: read-out: Log10 LC50 mean graph midpoint (MG_MID) (converted)
MDA-MB-468 = test: NCI in vitro cytotoxicity (SRB, 48 h), Breast panel; settings: Homo sapiens; MDA-MB-468, Breast; 48 h exposure
[3] = Leukemia, average of six to eight cell lines, read-out: Log10 GI50 (converted)
[4] = Leukemia, average of six to eight cell lines
[5] = exposure period of at least 48 hrs, read-out: GI50, range over leukemia cell lines
[6] = Ovarian, average of six to eight cell lines, read-out: Log10 GI50 (converted)
[7] = Ovarian, average of six to eight cell lines
[8] = exposure period of at least 48 hrs, read-out: GI50, range over ovarian cell lines
[9] = Homo sapiens, sixty cell lines, nine panels, read-out: GI50 against sixty cell lines in nine cell panels
[10] = human tumour cell lines, read-out: Log10 GI50 mean graph midpoint (MG_MID) (converted)

In the case of `COc1cc(C(=O)/C=C/c2c(C(F)(F)F)nc3sccn23)cc(OC)c1OC` [Compound 7f, (E)-3-(6-(trifluoromethyl)imidazo[2,1-b]thiazol-5-yl)-1-(3,4,5-trimethoxyphenyl)prop-2-en-1-one], the GI50 (CCRF-CEM) is reported as 1240 nM, the GI50 (MOLT-4) is reported as 1920 nM and the GI50 (RPMI-8226) is reported as 1080 nM. For the same molecule, the GI50 (A549/ATCC) was 3.44 µM, the GI50 (HOP-92) was 7 µM and the GI50 (NCI-H226) was 2.17 µM. It also gave a GI50 (NCI-H322M) of 1960 nM, a GI50 (NCI-H522) of 2030 nM and an IC50 (HCT-116) of 1010 nM. The GI50 (HCT-116; HCT-116, Colon, 48 h exposure) was 1010 nM, the GI50 (HCT-116; HCT-116, colon) was 1010 nM and the GI50 (HCT-15) was 1800 nM. It also gave a GI50 (HT29) of 1830 nM, a GI50 (KM12) of 1470 nM and a GI50 (SF-268) of 1740 nM. It also gave a GI50 (SF-295) of 2580 nM, a GI50 (SF-539) of 1550 nM and a GI50 (U251) of 1380 nM. The GI50 (IGROV1) was 2660 nM, the GI50 (OVCAR-4) was 3.05 µM and the GI50 (CAKI-1) was 1760 nM. It also gave a GI50 (SN12C) of 1560 nM, a GI50 (UO-31) of 1.87 µM and an IC50 (MCF7) of 1250 nM. For the same molecule, the GI50 (MCF7) was 1250 nM, the GI50 (MDA-MB-231/ATCC) was 2.92 µM and the IC50 (MDA-MB-231/ATCC) was 2920 nM. It also gave a GI50 (BT-549) of 2260 nM, a GI50 (MALME-3M) of 1.59 µM and a GI50 (MDAMB-435) of 1610 nM. It also gave a GI50 (SK-MEL-28) of 1.69 µM, a GI50 (UACC-62) of 1.52 µM and a GI50 (UACC-25) of 1.9 µM. For the same molecule, the GI50 (Leukemia cell lines; [3]) was 1290 nM, the CC50 (Leukemia cell lines; [4]) was no less than 100 µM and the GI50 (Leukemia cell lines; [5]) was 540 to 1920 nM. For the same molecule, the GI50 [1, 6] was 2690 nM, the CC50 [1, 7] was 57.5 µM and the GI50 [1, 8] was 1860 to 3080 nM. It also gave a GI50 (Breast cancer cell lines) of 2090 nM, a CC50 (Breast cancer cell lines) of 24.5 µM and an IC50 (Breast cancer cell lines) of 1250 to 2920 nM. For the same molecule, the GI50 [2, 9] was less than 9 µM, the “Log10 TGI mean graph midpoint (MG_MID)” value ([2]; human tumour cell lines) was −5.28 and the “in vitro cytotoxicity, in words” value ([2]; human tumour cell lines) was “significant cytotoxicity”. It also gave a GI50 [2, 10] of 1.91 µM and a CC50 ([2]; human tumour cell lines) of 19.1 µM.

`COc1ccc(C(=O)/C=C/c2c(C(F)(F)F)nc3sccn23)cc1OC` [Compound 8f, (E)-1-(3,4-dimethoxyphenyl)-3-(6-(trifluoromethyl)imidazo[2,1-b]thiazol-5-yl) prop-2-en-1-one] was tested, and the GI50 (CCRF-CEM) was 2330 nM, the GI50 (MOLT-4) was 2220 nM and the GI50 (RPMI-8226) was 1620 nM. It also gave a GI50 (A549/ATCC) of 4.65 µM, a GI50 (HOP-92) of 5.8 µM and a GI50 (NCI-H226) of 6.95 µM. For the same molecule, the GI50 (NCI-H322M) was 3170 nM, the GI50 (NCI-H522) was 2910 nM and the IC50 (HCT-116) was 1400 nM. The GI50 (HCT-116; HCT-116, Colon, 48 h exposure) was 1400 nM, the GI50 (HCT-15) was 2540 nM and the GI50 (HT29) was 2010 nM. The GI50 (KM12) was 1970 nM, the GI50 (SF-268) was 3440 nM and the GI50 (SF-295) was 3140 nM. It also gave a GI50 (SF-539) of 2360 nM, a GI50 (U251) of 1870 nM and a GI50 (IGROV1) of 3150 nM. The GI50 (OVCAR-4) was 4.08 µM, the GI50 (CAKI-1) was 2460 nM and the GI50 (SN12C) was 2980 nM. For the same molecule, the GI50 (UO-31) was 8.47 µM, the IC50 (MCF7) was 760 nM and the GI50 (MCF7) was 760 nM. It also gave a GI50 (MDA-MB-231/ATCC) of 5.91 µM, an IC50 (MDA-MB-231/ATCC) of 760 nM and a GI50 (BT-549) of 3250 nM. For the same molecule, the GI50 (MDA-MB-468) was 6.18 µM, the GI50 (MALME-3M) was 5.92 µM and the GI50 (MDAMB-435) was 1850 nM. For the same molecule, the GI50 (SK-MEL-28) was 8.48 µM, the GI50 (UACC-62) was 4.85 µM and the GI50 (UACC-25) was 7.77 µM. It also gave a GI50 (Leukemia cell lines; [3]) of 1480 nM, a CC50 (Leukemia cell lines; [4]) of no less than 100 µM and a GI50 (Leukemia cell lines; [5]) of 490 to 2330 nM. For the same molecule, the GI50 [1, 6] was 2950 nM, the CC50 [1, 7] was 100 µM and the GI50 [1, 8] was 1880 to 4180 nM. For the same molecule, the GI50 (Breast cancer cell lines) was 2950 nM, the CC50 (Breast cancer cell lines) was no less than 100 µM and the IC50 (Breast cancer cell lines) was 760 to 6180 nM. The GI50 [2, 9] was less than 9 µM, the “Log10 TGI mean graph midpoint (MG_MID)” value ([2]; human tumour cell lines) was −4.22 and the “in vitro cytotoxicity, in words” value ([2]; human tumour cell lines) was “significant cytotoxicity”. The GI50 [2, 10] was 3.09 µM and the CC50 ([2]; human tumour cell lines) was 100 µM.
